The target of this assay is T1, human GPR120 (Homo sapiens, UniProt Q5NUL3).
T1 construct: expressed in transfected cells; host or cells: CHOA12 cells
T1 sequence (Q5NUL3 1-361): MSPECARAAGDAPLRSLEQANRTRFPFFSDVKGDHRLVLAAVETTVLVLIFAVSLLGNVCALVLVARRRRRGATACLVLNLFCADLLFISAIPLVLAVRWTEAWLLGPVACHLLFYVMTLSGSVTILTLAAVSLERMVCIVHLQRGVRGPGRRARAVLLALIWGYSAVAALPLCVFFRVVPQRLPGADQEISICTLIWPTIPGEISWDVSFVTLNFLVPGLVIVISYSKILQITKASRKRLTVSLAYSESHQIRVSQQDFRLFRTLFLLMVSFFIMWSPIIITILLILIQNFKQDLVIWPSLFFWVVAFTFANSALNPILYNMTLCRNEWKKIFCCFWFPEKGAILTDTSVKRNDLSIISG
In words: GPR120 pERK AlphaScreen SureFire assay (human). As to conditions: CHO cells stably transfected with short form of human GPR120. The format is cell-based. An excerpt:
GPR120 activity was monitored by measuring phosphorylation of ERK (pERK), since G protein receptors are known to activate the ERK signaling cascade either directly and/or through recruitment of arrestin that serves as a scaffold for downstream signaling events.
GPR120 pERK AlphaScreen SureFire Assay
The human and mouse GPR120-mediated intracellular phosphorylated ERK assays were established using CHOA12 cells stably transfected with the short form of human or mouse GPR120 receptor. Cells were cultured in growth medium consisting of F-12 media (Invitrogen Cat. #11765) with 5% Charcoal/Dextran FBS (Invitrogen Cat. #12676-029), 500 μg/mL GENETICIN® (Life Technologies Cat. #10131-027) and 250 μg/mL Zeocin (Invitrogen Cat. #R250-01). Cells were cryo preserved at a concentration of 2×10^7 cells/mL, in 90% Charcoal/Dextran FBS and 10% DMSO, and frozen in liquid nitrogen at a low passage number.
For the pERK assay, 2×10^7 cells/mL cryopreserved human and mouse cells were thawed rapidly in a 37° C. water bath and added to a T-225 flask containing 50 mL growth medium. The flasks were placed in a tissue culture incubator overnight (37° C., 5% CO2). The next day, cells were harvested with trypsin (Gibco Cat. #25300-054), resuspended in serum-containing growth medium and counted using a Cellometer and volume adjusted to a concentration of 0.6×10^6cells/mL. Cells were plated into 384-well clear bottom tissue culture plates (BD Cat. #353962) at 50 μL/well, for a density of 30,000 cells/well using a MULTIDROP® and incubated for 16-18 hours (overnight) at 37° C. with 5% CO2. The next day, cells were serum starved in 30 μL of F-12 media without any serum or antibiotics for 2 hours at 37° C.
Test compounds were 3-fold, 11-point serially diluted in DMSO in a REMP assay plate (Matrix Cat. #4307) by Tecan and 5 μL was transferred into an ECHO source plate (LABCYTE® Cat. #LC-0200). Cells were then stimulated with 50 nL of compound dilutions using ECHO liquid handler for 7 minutes at 37° C. Compounds ranged from final assay concentrations of 33.33 μM to 0.56 nM.
The media was then dumped and cells lysed with 20 μL of 1× Lysis buffer from the AlphaScreen SureFire Phospho-ERK 1/2 Kit (Perkin Elmer Cat. #6760617M). The lysis buffer was diluted 5-fold with water before use. The plate was agitated on a shaker for 10 minutes after which 2 μL was transferred into a 384-well white proxiplate (Perkin Elmer Cat. #6008289). The SureFire assay reagent mix was prepared by mixing 60 parts Reaction Buffer, 10 parts Activation Buffer, 1 part Donor Beads, 1 part Acceptor Beads (Perkin Elmer Cat. #TGRES10K). 3.5 μL/well of this reagent mix was manually added to the proxiplate with a multichannel pipettor. Plates were spun down at 1000 rpm for 2 minutes, followed by light-protected incubation at room temperature for 2 hours. The plates were read on the Alpha-technology compatible Envision multilabel plate reader using AlphaScreen protocol according to manufacturer's specifications. The agonist effect of compounds was expressed as 100×(average sample−average blank)/(average total−average blank) where sample is the luminescence activity in the presence of test compound, blank is equal to the luminescence activity in the presence of DMSO control and the total is signal induced by 50 μM linolenic acid as reference compound. Activation data for the test compound over a range of concentrations was plotted as percentage activation of the test compound (100%=maximum response). After correcting for background, EC50 values were determined The EC50 is defined as the concentration of test compound which produces 50% of the maximal response and was quantified using the 4 parameter logistic equation to fit the data.
The human and mouse GPR120-mediated intracellular phosphorylated ERK assays were also established using CHO-K1 cells stably transfected with the short form of human or mouse GPR120 receptor. […]
(Alpha assays give light when donor and acceptor beads are brought close together.)

The EC50 is the midpoint of the concentration-response curve. Read a high EC50 as lower potency in that assay.

As for `O=C(O)C[C@@H]1C[C@H]1CC12CCC(c3cccc(Oc4ccccc4)c3)(CC1)OC2` (single isomer, unassigned) [Example 18], the midpoint of the response, the EC50, lay at 410 nM.
With `CCCC(C)Oc1cccc(C23CCC(CCOCC(=O)O)(CC2)CO3)c1` (racemic) [Example 53, 2-(2-(1-(3-(Pentan-2-yloxy)phenyl)-2-oxabicyclo[2.2.2]octan-4-yl)ethoxy)acetic acid], it took 1030 nM to reach a half-maximal effect (EC50).
The compound `O=C(O)COCCC12CCC(c3cc(F)c(F)c(Oc4ccc(F)cc4)c3)(CC1)OC2` [Example 95, 2-(2-(1-(3,4-Difluoro-5-(4-fluorophenoxy)phenyl)-2-oxabicyclo[2.2.2]octan-4-yl)ethoxy) acetic acid] had an EC50 of 350 nM.
Under `COc1cccc(Oc2cccc(C34CCC(CC[C@@H]5C[C@H]5C(=O)O)(CC3)CO4)c2)c1` (single isomer, unassigned) [Example 67, 2-(2-(1-(3-(3-Methoxyphenoxy)phenyl)-2-oxabicyclo[2.2.2]octan-4-yl)ethyl)cyclopropanecarboxylic acid] stands 750 nM.
As to `O=C(O)C1CC1CCCC12CCC(c3cccc(Oc4ccccc4)c3)(CC1)OC2` (stereo not shown) [Example 120, 2-(3-(1-(3-Phenoxyphenyl)-2-oxabicyclo[2.2.2]octan-4-yl)propyl) cyclopropane carboxylic acid], the EC50 was 2210 nM.
`Cc1nc(-c2cccc(C34CCC(CCOCC(=O)O)(CC3)CO4)c2)no1` [Example 48, 2-(2-(1-(3-(5-Methyl-1,2,4-oxadiazol-3-yl)phenyl)-2-oxabicyclo[2.2.2]octan-4-yl)ethoxy)acetic acid] registered an EC50 of 6760 nM.
In the case of `COC(CCC12CCC(c3cccc(Oc4ccccc4)c3)(CC1)OC2)CC(=O)O` (stereo not shown) [Example 33, 3-Methoxy-5-(1-(3-phenoxyphenyl)-2-oxabicyclo[2.2.2]octan-4-yl)pentanoic acid], the EC50 came to 1900 nM.
`Cc1ccc(Oc2cc(F)cc(C34CCC(CCOCC(=O)NO)(CC3)CO4)c2)cc1F` [Example 94, 2-(2-(1-(3-Fluoro-5-(3-fluoro-4-methylphenoxy)phenyl)-2-oxabicyclo[2.2.2]octan-4-yl)ethoxy)-N-hydroxyacetamide] returned an EC50 of 1160 nM.
Under `C=C(C)COc1cccc(C23CCC(CCOCC(=O)O)(CC2)CO3)c1` [Example 19, 2-(2-(1-(3-(2-Methylallyloxy)phenyl)-2-oxabicyclo[2.2.2]octan-4-yl)ethoxy)acetic acid] stands 1980 nM; under `O=C(O)COCCC12CCC(c3cccc(Oc4cccc(O)c4)c3)(CC1)OC2` [Example 117, 2-(2-(1-(3-(3-Hydroxyphenoxy)phenyl)-2-oxabicyclo[2.2.2]octan-4-yl)ethoxy)acetic acid], 5210 nM; under `O=C(O)CCCCC12CCC(c3cccc(Oc4ccccc4)c3)(CC1)OC2` [Example 2], 60 nM.
Consider `OCC(O)CCC12CCC(c3cccc(Oc4ccccc4)c3)(CC1)OC2` (stereo not shown) [Example 56, 4-(1-(3-Phenoxyphenyl)-2-oxabicyclo[2.2.2]octan-4-yl)butane-1,2-diol], for which the EC50 worked out at 610 nM.
In the case of `O=C(O)COCCC12CCC(c3cc(F)cc(Oc4ccccc4)c3)(CC1)OC2` [Example 23, 2-(2-(1-(3-Fluoro-5-phenoxyphenyl)-2-oxabicyclo[2.2.2]octan-4-yl)ethoxy)acetic acid], a half-maximal response (EC50) required 310 nM.
Under `COc1cc(Oc2ccc(F)c(F)c2)cc(C23CCC(CCOCC(=O)O)(CC2)CO3)c1` [Example 91, 2-(2-(1-(3-(3,4-difluorophenoxy)-5-methoxyphenyl)-2-oxabicyclo[2.2.2]octan-4-yl)ethoxy)acetic acid] stands 630 nM; under `O=C(O)C/C=C/CC12CCC(c3cccc(Oc4ccccc4)c3)(CC1)OC2` [Example 34, (E)-5-(1-(3-Phenoxyphenyl)-2-oxabicyclo[2.2.2]octan-4-yl)pent-3-enoic acid], 70 nM.
Turning to `O=C(O)COCCC12CCC(c3cccc(C(F)(F)F)c3)(CC1)OC2` [Example 49, 2-(2-(1-(3-(Trifluoromethyl)phenyl)-2-oxabicyclo[2.2.2]octan-4-yl)ethoxy)acetic acid], the concentration giving a half-maximal response (EC50) is 3310 nM.
Compound `O=C(O)[C@@H]1C[C@H]1COCC12CCC(c3cccc(Oc4ccccc4)c3)(CC1)OC2` (single isomer, unassigned) [Example 98] had an EC50 of 1020 nM.
`COc1ccc(Oc2cccc(C34CCC(CCOCC(=O)O)(CC3)OC4)c2)cc1F` [Example 100, 2-(2-(4-(3-(3-Fluoro-4-methoxyphenoxy)phenyl)-2-oxabicyclo[2.2.2]octan-1-yl)ethoxy) acetic acid] showed a concentration for a half-maximal effect (EC50) of 550 nM.
In turn, `COc1cccc(Oc2cc(F)cc(C34CCC(CCOCC(=O)O)(CC3)CO4)c2)c1` [Example 82, 2-(2-(1-(3-fluoro-5-(3-methoxyphenoxy)phenyl)-2-oxabicyclo[2.2.2]octan-4-yl)ethoxy)acetic acid] gave an EC50 of 810 nM.
In turn, `O=C(O)COCCC12CCC(c3ccccc3Oc3ccccc3)(CC1)OC2` [Example 37, 2-(2-(1-(2-Phenoxyphenyl)-2-oxabicyclo[2.2.2]octan-4-yl)ethoxy)acetic acid] yielded an EC50 of 1140 nM.
In the case of `Cc1ccc(Oc2cc(F)cc(C34CCC(CCOCC(=O)O)(CC3)CO4)c2)cc1` [Example 83, 2-(2-(1-(3-fluoro-5-(p-tolyloxy)phenyl)-2-oxabicyclo[2.2.2]octan-4-yl)ethoxy)acetic acid], the concentration giving a half-maximal response (EC50) is 320 nM.
On to `O=C(O)COCCC12CCC(c3cc(F)cc(Oc4cccc(F)c4)c3)(CC1)OC2` [Example 55, 2-(2-(1-(3-Fluoro-5-(3-fluorophenoxy)phenyl)-2-oxabicyclo[2.2.2]octan-4-yl)ethoxy) acetic acid], for which the midpoint of the response, the EC50, lay at 330 nM.
The compound `COc1cccc(C23CCC(CCCCC(=O)O)(CC2)CO3)c1` [Example 3, 5-(1-(3-Methoxyphenyl)-2-oxabicyclo[2.2.2]octan-4-yl)pentanoic acid] returned an EC50 of 200 nM.
Compound `COc1cc(Oc2ccccc2)cc(C23CCC(CCOCC(=O)O)(CC2)CO3)c1` [Example 90, 2-(2-(1-(3-methoxy-5-phenoxyphenyl)-2-oxabicyclo[2.2.2]octan-4-yl)ethoxy)acetic acid] registered an EC50 of 950 nM.
As for `O=C(O)COCCC12CCC(c3cccc(OCC4CCCCC4)c3)(CC1)OC2` [Example 52, 2-(2-(1-(3-(Cyclohexylmethoxy)phenyl)-2-oxabicyclo[2.2.2]octan-4-yl)ethoxy)acetic acid], the figure is 4340 nM; as for `O=C(O)COCCC12CCC(c3cccc(C4=CCCC4)c3)(CC1)OC2` [Example 24, 2-(2-(1-(3-Cyclopentenylphenyl)-2-oxabicyclo[2.2.2]octan-4-yl)ethoxy)acetic acid], 800 nM; as for `Cc1ccc(Oc2cccc(C34CCC(CCOCC(=O)O)(CC3)OC4)c2)cc1` [Example 106], 580 nM.
`COc1cc(Oc2cc(F)cc(C34CCC(CCOCC(=O)O)(CC3)CO4)c2)ccc1F` [Example 86, 2-(2-(1-(3-fluoro-5-(4-fluoro-3-methoxyphenoxy)phenyl)-2-oxabicyclo [2.2.2]octan-4-yl)ethoxy) acetic acid] displayed an EC50 of 850 nM.

For the origin of these results see patent US8962660B2 (Bristol-Myers Squibb Company, priority 2013, dated 2015).
